Key:
Experiment in all cases: relative viability (nuclei count vs DMSO), 5 days (fraction); higher = more cells survive
EMC-BAC-2 = test system: EMC-BAC-2
Outline: (§1)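 Relative viability equals treated-well nuclei counts divided by vehicle-well nuclei counts. Counts came from 4× images of lung cancer cell lines grown in 1536-well plates for 5 days after pin-tool dosing on the day after seeding. Dosing used one drug alone or a fixed anchor-drug dose plus five library-drug doses (not always all listed) in √10 steps, and values are medians of duplicate plates.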

NCI-H23 = test system: NCI-H23
Outline: as §1

HARA = test system: HARA
Outline: as §1

NCI-H322M = test system: NCI-H322M
Outline: as §1

PC-3 [JPC-3] = test system: PC-3 [JPC-3]
Outline: as §1

NCI-H661 = test system: NCI-H661
Outline: as §1

LCLC-97TM1 = test system: LCLC-97TM1
Outline: as §1

NCI-H1792 = test system: NCI-H1792
Outline: as §1

NCI-H1944 = test system: NCI-H1944
Outline: as §1

HCC-827 = test system: HCC-827
Outline: as §1

SK-LU-1 = test system: SK-LU-1
Outline: as §1

NCI-H441 = test system: NCI-H441
Outline: as §1

NCI-H1915 = test system: NCI-H1915
Outline: as §1

NCI-H1793 = test system: NCI-H1793
Outline: as §1

H3255 = test system: H3255
Outline: as §1

HCC-15 = test system: HCC-15
Outline: as §1

NCI-H460 = test system: NCI-H460
Outline: as §1

EKVX = test system: EKVX
Outline: as §1

LC-2-ad = test system: LC-2-ad
Outline: as §1

LU99A = test system: LU99A
Outline: as §1

NCI-H1437 = test system: NCI-H1437
Outline: as §1

NCI-H2126 = test system: NCI-H2126
Outline: as §1

O=c1[nH]c2ccccc2n1C1CCN(CCCC(c2ccc(F)cc2)c2ccc(F)cc2)CC1 [Pimozide] + Cc1nc(NC(=O)N2CCC[C@H]2C(N)=O)sc1-c1ccnc(C(C)(C)C(F)(F)F)c1 [Alpelisib] (partner 2 µM)
relative viability (EMC-BAC-2; first compound 0.08 µM): 0.653 | relative viability (EMC-BAC-2; first compound 0.253 µM): 0.703 | relative viability (EMC-BAC-2; first compound 0.8 µM): 0.682 | relative viability (EMC-BAC-2; first compound 2.53 µM): 0.668 | relative viability (EMC-BAC-2; first compound 8 µM): 0.744 | relative viability (NCI-H23; first compound 0.08 µM): 0.577 | relative viability (NCI-H23; first compound 0.253 µM): 0.575 | relative viability (NCI-H23; first compound 0.8 µM): 0.718 | relative viability (NCI-H23; first compound 2.53 µM): 0.68 | relative viability (NCI-H23; first compound 8 µM): 0.745 | relative viability (HARA; first compound 0.08 µM): 0.718 | relative viability (HARA; first compound 0.253 µM): 0.829 | relative viability (HARA; first compound 0.8 µM): 0.565 | relative viability (HARA; first compound 2.53 µM): 0.675 | relative viability (HARA; first compound 8 µM): 0.728 | relative viability (NCI-H322M; first compound 0.253 µM): 0.835 | relative viability (NCI-H322M; first compound 0.8 µM): 0.819 | relative viability (NCI-H322M; first compound 2.53 µM): 0.695 | relative viability (NCI-H322M; first compound 8 µM): 0.716 | relative viability (PC-3 [JPC-3]; first compound 0.253 µM): 0.964 | relative viability (PC-3 [JPC-3]; first compound 0.8 µM): 0.978 | relative viability (PC-3 [JPC-3]; first compound 2.53 µM): 0.961 | relative viability (PC-3 [JPC-3]; first compound 8 µM): 0.96 | relative viability (NCI-H661; first compound 0.08 µM): 0.759 | relative viability (NCI-H661; first compound 0.253 µM): 0.594 | relative viability (NCI-H661; first compound 0.8 µM): 0.592 | relative viability (NCI-H661; first compound 2.53 µM): 0.494 | relative viability (NCI-H661; first compound 8 µM): 0.766 | relative viability (LCLC-97TM1; first compound 0.08 µM): 0.28 | relative viability (LCLC-97TM1; first compound 0.253 µM): 0.239 | relative viability (LCLC-97TM1; first compound 0.8 µM): 0.207 | relative viability (LCLC-97TM1; first compound 2.53 µM): 0.224 | relative viability (LCLC-97TM1; first compound 8 µM): 0.271 | relative viability (NCI-H1792; first compound 0.08 µM): 0.874 | relative viability (NCI-H1792; first compound 0.253 µM): 0.661 | relative viability (NCI-H1792; first compound 0.8 µM): 0.668 | relative viability (NCI-H1792; first compound 2.53 µM): 0.575 | relative viability (NCI-H1792; first compound 8 µM): 0.836 | relative viability (NCI-H1944; first compound 0.08 µM): 0.654 | relative viability (NCI-H1944; first compound 0.253 µM): 0.817 | relative viability (NCI-H1944; first compound 0.8 µM): 0.815 | relative viability (NCI-H1944; first compound 2.53 µM): 0.824 | relative viability (NCI-H1944; first compound 8 µM): 0.81 | relative viability (HCC-827; first compound 0.253 µM): 0.92 | relative viability (HCC-827; first compound 0.8 µM): 0.956 | relative viability (HCC-827; first compound 2.53 µM): 0.95 | relative viability (HCC-827; first compound 8 µM): 1 | relative viability (SK-LU-1; first compound 0.08 µM): 0.961 | relative viability (SK-LU-1; first compound 0.253 µM): 0.986 | relative viability (SK-LU-1; first compound 0.8 µM): 0.926 | relative viability (SK-LU-1; first compound 2.53 µM): 0.719 | relative viability (SK-LU-1; first compound 8 µM): 0.649 | relative viability (NCI-H441; first compound 0.08 µM): 1.05 | relative viability (NCI-H441; first compound 0.253 µM): 0.733 | relative viability (NCI-H441; first compound 0.8 µM): 0.854 | relative viability (NCI-H441; first compound 2.53 µM): 0.574 | relative viability (NCI-H441; first compound 8 µM): 0.442 | relative viability (NCI-H1915; first compound 0.08 µM): 1.1 | relative viability (NCI-H1915; first compound 0.253 µM): 1.06 | relative viability (NCI-H1915; first compound 0.8 µM): 0.837 | relative viability (NCI-H1915; first compound 2.53 µM): 1.08 | relative viability (NCI-H1915; first compound 8 µM): 0.997 | relative viability (NCI-H1793; first compound 0.08 µM): 0.491 | relative viability (NCI-H1793; first compound 0.253 µM): 0.567 | relative viability (NCI-H1793; first compound 0.8 µM): 0.988 | relative viability (NCI-H1793; first compound 2.53 µM): 0.665 | relative viability (NCI-H1793; first compound 8 µM): 0.87 | relative viability (H3255; first compound 0.253 µM): 0.569 | relative viability (H3255; first compound 0.8 µM): 0.599 | relative viability (H3255; first compound 2.53 µM): 0.754 | relative viability (H3255; first compound 8 µM): 0.711 | relative viability (HCC-15; first compound 0.08 µM): 0.913 | relative viability (HCC-15; first compound 0.253 µM): 0.91 | relative viability (HCC-15; first compound 0.8 µM): 0.832 | relative viability (HCC-15; first compound 2.53 µM): 0.782 | relative viability (HCC-15; first compound 8 µM): 0.769 | relative viability (NCI-H460; first compound 0.08 µM): 0.476 | relative viability (NCI-H460; first compound 0.253 µM): 0.428 | relative viability (NCI-H460; first compound 0.8 µM): 0.472 | relative viability (NCI-H460; first compound 2.53 µM): 0.487 | relative viability (NCI-H460; first compound 8 µM): 0.493 | relative viability (EKVX; first compound 0.253 µM): 0.806 | relative viability (EKVX; first compound 0.8 µM): 0.934 | relative viability (EKVX; first compound 2.53 µM): 0.853 | relative viability (EKVX; first compound 8 µM): 0.856 | relative viability (LC-2-ad; first compound 0.08 µM): 0.762 | relative viability (LC-2-ad; first compound 0.253 µM): 0.847 | relative viability (LC-2-ad; first compound 0.8 µM): 0.934 | relative viability (LC-2-ad; first compound 2.53 µM): 0.879 | relative viability (LC-2-ad; first compound 8 µM): 0.776 | relative viability (LU99A; first compound 0.08 µM): 0.397 | relative viability (LU99A; first compound 0.253 µM): 0.424 | relative viability (LU99A; first compound 0.8 µM): 0.42 | relative viability (LU99A; first compound 2.53 µM): 0.484 | relative viability (LU99A; first compound 8 µM): 0.477 | relative viability (NCI-H1437; first compound 0.08 µM): 1.04 | relative viability (NCI-H1437; first compound 0.253 µM): 0.965 | relative viability (NCI-H1437; first compound 0.8 µM): 1.02 | relative viability (NCI-H1437; first compound 2.53 µM): 0.862 | relative viability (NCI-H1437; first compound 8 µM): 0.916 | relative viability (NCI-H2126; first compound 0.08 µM): 0.756 | relative viability (NCI-H2126; first compound 0.253 µM): 0.734 | relative viability (NCI-H2126; first compound 0.8 µM): 0.729 | relative viability (NCI-H2126; first compound 2.53 µM): 0.758 | relative viability (NCI-H2126; first compound 8 µM): 0.757
